Measured values taken from patent US7939267B2, “Detection of activation of endothelial cells as surrogate marker for angiogenesis” (Laboratory Corporation of America Holdings, priority 2004, dated 2011).
Where two headings read alike, the source gives them in different places. Each block holds one molecule with its values, some of them ahead of it.

Columns and labels:
[1] = system: Erk; settings: HUVEC, increasing VEGF concentrations, 5 min stimulation time (FIG. 10A)
Procedure: (§1) • 1. Serum-starve human umbilical vein endothelial cell line (HUVEC) culture overnight before use. • 2. Stimulate cell lines with VEGF in culture media for a set period of time (1, 3, 5, 9, 14 minutes) at 37° C. Exemplary doses of VEGF are 0, 2, 10, 25, 50, 250, 1000 ng/mL. • 3. Aspirate culture media, transfer onto ice, and add lysis buffer to lyse cells in situ. • 4. Scrape and transfer lysate to microfuge tube. Incubate on ice for 30 min. Microfuge at 14,000 rpm, 4° C., for 10 min. (Centrifugation is optional.) • 5. Collect supernatants as lysates and aliquot for storage at −80° C. until use. Assay:
(§2) The total assay volume was 40 ul. The lysate volume was adjusted to 30 ul with lysis buffer.

[2] = system: RSK; settings: HUVEC, increasing VEGF concentrations, 5 min stimulation time (FIG. 10B)
Procedure: as §1, §2

[3] = biological target: VEGFR2 (Homo sapiens, UniProt P35968)
Procedure: (§3) In this example, VEGFR2-VEGFR2 homodimers and phosphorylation states were measured in cell lysates from several cell lines after treatment with various concentrations of vascular endothelial growth factor (VEGF). Measurements were made using three binding compounds and a cleaving probe as described below.
as §1
(§4) Assay design: As illustrated diagrammatically in FIG. 7A, VEGFR2-VEGFR2 (R2-R2) homodimers (900) are quantified ratiometrically based on the binding of a cleaving probe (902), a first bind compound (904) which is specific for the same antigenic determinant on VEGFR2 as the cleaving probe, a second binding compound (906) which is specific for a different antigenic determinant on VEGFR2 from the cleaving probe, and a third binding compound (908) which is specific for phosphorylated tyrosine. A photosensitizer is attached to the cleaving probe (902) via an avidin-biotin linkage, and the first, second, and third binding compounds are labeled with molecular tags Pro10, Pro14, and Pro2, respectively.
(§5) The total assay volume was 40 ul. The lysate volume was adjusted to 30 ul with lysis buffer. The antibodies are diluted in lysis buffer up to 10 ul. Typically ˜5000 to 15000 cell-equivalent of lysates is used per reaction. The detection limit is ˜1000 cell-equivalent of lysates.
(§6) Procedure: Final concentrations of pre-mixed binding compounds (i.e. molecular tag- or biotin-antibody conjugates) in reaction: • Pro10_anti-VEGFR2: 0.25 ug/ml (VEGFR2 homodimer) • Pro14_anti-VEGFR2: 0.25 ug/ml (total VEGFR2) • Pro2_anti-phospho-Tyr: 0.0125 ug/ml (phosphorylation) • Biotin_anti-VEGFR2: 0.25 ug/ml • 1. To assay 96-well, add 10 ul antibody mix to 30 ul lysate and incubate for 1 hour at RT. • 2. Add 2 ul streptavidin-derivatized cleaving probe (final 2 ug/well) to assay well and incubate for 45 min. • 3. Add 150 ul of wash buffer to 96-well filter plate (Millipore MAGVN2250) and incubate for 1 hr at RT for blocking. • 4. Empty filter plate by vacuum suction.

[4] = biological target: T1, VEGFR2-VEGFR2 homodimers (Homo sapiens, UniProt P35968)
Procedure: as §3, §1, §4, §5, §6

[5] = system: Akt; settings: HUVEC, increasing VEGF concentrations, data not shown
Text: Results of the assays are illustrated in FIGS. 10A, 10B and 10C.

[6] = system: BAD; assay: BAD phosphorylation in HUVEC cell lysates, releasable molecular tag assay; assay type: cell-based, human; settings: increasing VEGF concentrations, 5 min stimulation time (FIG. 10C)
Procedure: • 1. […] Scrape and transfer lysate to microfuge tube. Incubate on ice for 30 min. […] (Centrifugation is optional.) • 5. […] Assay:
(§7) The total assay volume was 40 ul. […] The detection limit was ˜1000 cell-equivalent of lysates.
Pro52_anti-BAD (Total), 5 nM
Pro46_anti-Phospho-BAD (Phosphorylation), 5 nM
Pro53_anti-phospho-RSK (Phosphorylation), 5 nM • 1. […] Add 20 μl of Antibody mixture. • 3. […] Empty filter plate by vacuum suction. • 6. […] Repeat step 6 one more time. • 8. […] Illuminate the plate for 10 min. • 10.

[7] = biological target: T1, VEGFR2-VEGFR2 homodimers; remark: listed apart in the source
Procedure: • 1. […] Scrape and transfer lysate to microfuge tube. Incubate on ice for 30 min. […]

[8] = biological target: T2, Tie2-Tie2 homodimers (Homo sapiens, UniProt Q02763); assay: Tie2 homodimerization in HUVEC cell lysates, releasable molecular tag assay; assay type: cell-based
T2 construct: endogenous in cells; host or cells: HUVEC
Procedure: (§8) • 1. […] Stimulate cell lines with 200 ng/mL Ang-1 in culture media for a set period of time (10, 30 minutes) at 37° C. • 3. […] Scrape and transfer lysate to microfuge tube. Incubate on ice for 30 min. […] (Centrifugation is optional.) • 5. […] Assay:
(§9) Assay design: As illustrated diagrammatically in FIG. 4C, Tie2-Tie2 homodimers are quantified ratiometrically based on the binding of cleaving probe (134) and binding compounds (130), and (132). A photosensitizer indicated by “PS” is attached to cleaving probe (134) via an avidin-biotin linkage, and binding compounds (130), and (132) are labeled with molecular tags Pro10, and Pro14, respectively.
as §7
Pro10_anti-Tie2: 0.25 ug/ml (Tie2 homodimer)
(§10) Pro14_anti-Tie2: 0.25 ug/ml (total Tie2)
(§11) Biotin_anti-Tie2: 0.25 ug/ml • 1. […] Empty filter plate by vacuum suction. […] Repeat one time. • 6. […] Repeat one time. • 7. […] Assay buffers are as previously described. Data Analysis: • 1. […] Report homodimerization of Tie2 as the corresponding RFU ratiometric to RFU from Pro14_anti-Tie2 from assay wells using biotin_anti-Tie2.

[9] = biological target: T3, Tie2 (Homo sapiens, UniProt Q02763); assay: Total Tie2 receptor in HUVEC cell lysates, releasable molecular tag assay; assay type: cell-based; settings: Ang-1 treatment (FIG. 8B)
T3 construct: endogenous in cells; host or cells: HUVEC
Procedure: as §8, §9, §7, §10, §11

T1 sequence (P35968 20-1356): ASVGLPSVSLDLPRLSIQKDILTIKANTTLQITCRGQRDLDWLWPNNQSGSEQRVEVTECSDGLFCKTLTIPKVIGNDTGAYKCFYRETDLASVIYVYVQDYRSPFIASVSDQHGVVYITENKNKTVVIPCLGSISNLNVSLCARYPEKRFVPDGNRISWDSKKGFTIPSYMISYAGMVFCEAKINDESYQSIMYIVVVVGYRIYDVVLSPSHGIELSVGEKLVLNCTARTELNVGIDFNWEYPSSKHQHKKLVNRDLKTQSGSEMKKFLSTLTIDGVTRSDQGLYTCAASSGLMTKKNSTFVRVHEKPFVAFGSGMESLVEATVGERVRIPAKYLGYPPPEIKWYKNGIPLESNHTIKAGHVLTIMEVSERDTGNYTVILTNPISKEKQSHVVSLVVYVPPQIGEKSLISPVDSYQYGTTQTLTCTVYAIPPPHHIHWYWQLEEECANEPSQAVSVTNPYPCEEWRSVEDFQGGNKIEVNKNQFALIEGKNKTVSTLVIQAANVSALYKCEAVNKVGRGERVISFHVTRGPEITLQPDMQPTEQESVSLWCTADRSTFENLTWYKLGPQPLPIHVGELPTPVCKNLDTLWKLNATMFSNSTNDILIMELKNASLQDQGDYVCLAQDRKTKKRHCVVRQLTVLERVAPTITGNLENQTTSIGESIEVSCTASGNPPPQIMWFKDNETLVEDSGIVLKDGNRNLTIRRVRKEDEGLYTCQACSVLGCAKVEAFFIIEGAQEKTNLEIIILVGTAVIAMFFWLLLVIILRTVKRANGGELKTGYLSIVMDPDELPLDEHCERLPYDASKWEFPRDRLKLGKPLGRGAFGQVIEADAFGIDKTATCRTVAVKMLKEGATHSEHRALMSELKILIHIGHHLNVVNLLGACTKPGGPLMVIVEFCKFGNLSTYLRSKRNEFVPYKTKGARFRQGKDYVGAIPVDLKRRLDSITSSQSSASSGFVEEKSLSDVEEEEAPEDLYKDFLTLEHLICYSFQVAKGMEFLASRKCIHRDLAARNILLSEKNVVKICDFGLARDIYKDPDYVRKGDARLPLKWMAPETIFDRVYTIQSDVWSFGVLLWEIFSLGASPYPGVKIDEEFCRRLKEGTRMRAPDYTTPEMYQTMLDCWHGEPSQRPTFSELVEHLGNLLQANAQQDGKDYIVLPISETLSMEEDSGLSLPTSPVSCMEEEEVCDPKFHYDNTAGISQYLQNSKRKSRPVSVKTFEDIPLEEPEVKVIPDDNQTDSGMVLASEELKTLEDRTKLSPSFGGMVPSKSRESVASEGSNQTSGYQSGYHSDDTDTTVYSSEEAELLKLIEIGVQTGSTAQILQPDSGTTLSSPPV
VEGFR2, sequence (P35968 20-1356): as above
T2 sequence (Q02763 23-1124): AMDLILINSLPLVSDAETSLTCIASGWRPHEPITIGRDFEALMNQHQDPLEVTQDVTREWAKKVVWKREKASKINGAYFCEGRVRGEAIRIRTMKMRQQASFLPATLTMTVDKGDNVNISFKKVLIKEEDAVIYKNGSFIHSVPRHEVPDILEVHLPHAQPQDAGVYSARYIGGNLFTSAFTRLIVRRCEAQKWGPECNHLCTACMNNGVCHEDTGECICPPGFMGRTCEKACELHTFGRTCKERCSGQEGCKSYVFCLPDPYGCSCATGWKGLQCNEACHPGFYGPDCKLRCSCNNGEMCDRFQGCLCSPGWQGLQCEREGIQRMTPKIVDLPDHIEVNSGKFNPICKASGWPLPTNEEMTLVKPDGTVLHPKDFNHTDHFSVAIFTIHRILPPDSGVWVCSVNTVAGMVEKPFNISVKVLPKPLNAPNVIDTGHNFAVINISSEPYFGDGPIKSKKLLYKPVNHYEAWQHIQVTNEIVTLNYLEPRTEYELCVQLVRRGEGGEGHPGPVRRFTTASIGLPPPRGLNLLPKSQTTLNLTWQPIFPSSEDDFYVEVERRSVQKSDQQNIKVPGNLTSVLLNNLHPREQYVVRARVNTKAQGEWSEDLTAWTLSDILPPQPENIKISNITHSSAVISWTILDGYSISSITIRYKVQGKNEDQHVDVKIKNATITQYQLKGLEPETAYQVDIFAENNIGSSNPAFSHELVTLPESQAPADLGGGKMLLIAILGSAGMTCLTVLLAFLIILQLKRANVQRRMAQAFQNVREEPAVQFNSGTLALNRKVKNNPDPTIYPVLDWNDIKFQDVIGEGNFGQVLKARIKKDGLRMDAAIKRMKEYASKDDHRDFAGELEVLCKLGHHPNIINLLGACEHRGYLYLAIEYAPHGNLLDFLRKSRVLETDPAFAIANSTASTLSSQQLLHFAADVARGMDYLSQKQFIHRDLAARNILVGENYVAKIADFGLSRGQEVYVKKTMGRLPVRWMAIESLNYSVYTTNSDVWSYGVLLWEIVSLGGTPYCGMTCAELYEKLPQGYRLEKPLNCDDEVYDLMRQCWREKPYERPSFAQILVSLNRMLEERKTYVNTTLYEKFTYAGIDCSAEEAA
T3 sequence (Q02763 23-1124): as above

Molecule: VEGF
phosphorylation state of Erk [1]: increases on HUVEC cells with increasing concentrations of VEGF | phosphorylation state of RSK [2]: increases on HUVEC cells with increasing concentrations of VEGF | VEGFR2 phosphorylation [3]: increases on HUVEC cells with increasing concentrations of VEGF | VEGFR2 phosphorylation over time [3]: transient, peaking at 1 minute of stimulation and decreasing to background level by 5 minutes | VEGFR2-VEGFR2 homodimer formation over time [4]: form by 1 minute of VEGF stimulation, and remain after up to 14 minutes of stimulation | VEGFR2 homodimerization [4]: large increase in VEGFR2 homodimerization | quantity of VEGFR2-VEGFR2 homodimers [4]: increases on HUVEC cells with increasing concentrations of VEGF | phosphorylation of Akt [5]: increased on HUVEC cells with increasing concentrations of VEGF | phosphorylation state of BAD [6]: increases on HUVEC cells with increasing concentrations of VEGF | VEGFR2 homodimerization [7]: large increase in VEGFR2 homodimerization

quantity of Tie2-Tie2 homodimers ([8]; 200 ng/mL Ang-1, 10 min of stimulation (FIG. 8A)): increase on HUVEC cells | quantity of Tie2-Tie2 homodimers ([8]; 200 ng/mL Ang-1, 30 min stimulation (FIG. 8A)): decreases from that level | total amount of Tie2 receptor [9]: does not change with Ang-1 treatment
B1: Ang-1: angiopoietin-1, major physiological ligand for Tie-2, used to stimulate HUVEC cells (protein, UniProt Q15389 16-498, looked up)
Angiopoietin-1: HIGCSNQRRSPENSGRRYNRIQHGQCAYTFILPEHDGNCRESTTDQYNTNALQRDAPHVEPDFSSQKLQHLEHVMENYTQWLQKLENYIVENMKSEMAQIQQNAVQNHTATMLEIGTSLLSQTAEQTRKLTDVETQVLNQTSRLEIQLLENSLSTYKLEKQLLQQTNEILKIHEKNSLLEHKILEMEGKHKEELDTLKEEKENLQGLVTRQTYIIQELEKQLNRATTNNSVLQKQQLELMDTVHNLVNLCTKEGVLLKGGKREEEKPFRDCADVYQAGFNKSGIYTIYINNMPEPKKVFCNMDVNGGGWTVIQHREDGSLDFQRGWKEYKMGFGNPSGEYWLGNEFIFAITSQRQYMLRIELMDWEGNRAYSQYDRFHIGNEKQNYRLYLKGHTGTAGKQSSLILHGADFSTKDADNDNCMCKCALMLTGGWWFDACGPSNLNGMFYTAGQNHGKLNGIKWHYFKGPSYSLRSTTMMIRPLDF
